The record followed here is patent publication US20240252488A1 (KOREA RESEARCH INSTITUTE OF CHEMICAL TECHNOLOGY, priority 2020, published 2024).

The target of experiment [1] is T1, MLKL (Homo sapiens, UniProt Q8NB16).
T1 sequence (Q8NB16 1-471): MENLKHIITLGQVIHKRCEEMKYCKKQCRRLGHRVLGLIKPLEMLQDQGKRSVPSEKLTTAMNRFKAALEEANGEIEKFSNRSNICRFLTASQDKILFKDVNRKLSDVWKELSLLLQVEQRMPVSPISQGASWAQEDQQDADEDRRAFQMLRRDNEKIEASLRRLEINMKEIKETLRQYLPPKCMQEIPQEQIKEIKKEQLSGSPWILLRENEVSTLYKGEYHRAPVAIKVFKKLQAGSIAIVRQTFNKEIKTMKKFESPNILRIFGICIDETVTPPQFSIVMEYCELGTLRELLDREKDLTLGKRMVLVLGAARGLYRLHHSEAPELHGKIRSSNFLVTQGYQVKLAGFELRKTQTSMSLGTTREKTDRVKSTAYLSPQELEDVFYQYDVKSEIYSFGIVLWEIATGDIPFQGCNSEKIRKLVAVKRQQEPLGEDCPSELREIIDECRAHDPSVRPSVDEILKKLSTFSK
The experiment can be described thus: Measurement of binding affinity with MLKL receptor (competitive binding assay, Kd). Also on record: made in house; host or cells: HEK 293 cell line (T7 phage in E. coli BL21-derived host is also described). An outline of the steps: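 Kd comes from a bead-based competition format: compound-dependent loss of DNA-tagged, HEK 293-expressed MLKL capture, measured as eluate kinase by qPCR. Final DMSO is 0.9%.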

The target of experiment [2] is T1, MLKL. The experiment can be described thus: MLKL degradation assay in HepG2 cell line (western blot). It counts as cell-based. As to conditions: cell line not given; for Degradation assay (Degradation %) 1 μM: compound 1 μM; for Degradation assay (Degradation %) 10 μM: compound 10 μM. On the set-up: endogenous in cells; host or cells: HepG2 or HaCaT. On the procedure:
MLKL degradation ability was evaluated in the following method.
1 mL of Human liver cancer cell line (HepG2 cell line) or human skin cell line (HaCaT cell line) was equally distributed into each well at 2.0×10^5 cells/mL in a 12-well cell culture plate. On the next day, the medium was replaced with a medium made so that the final concentration of test compound was 1 or 10 μM (1 mL/well), and incubated in 5% CO2, at 37° C. for 20-24 hours (Thermo scientific, Forma steri-cycle).
For protein preparation after incubation, cells were washed with 1×TBST, and 60 μL of RIPA lysis buffer containing Halt™ Protease and Phosphatase Inhibitor Cocktail was dispensed into each well. After scraping the cells with a scraper, the cells were recovered, and the pallet was homogenized and reacted on ice for 30 minutes. After the cells were centrifuged at 13,000 rpm, 10 minutes, 4° C., the supernatant was transferred to a new E-tube. For protein quantification, after dispensing sample and BCA (0-4 mg/ml) in a 96 well plate, 100 μL of BCA was dispensed and reacted in a 37° C. incubator for 30 minutes. After measuring the absorbance (SpectraMax, M5e, 562 nm), the amount of the sample was adjusted with the same concentration of protein and 4× Laemmli sample buffer, DW, and reacted at 100° C. for 5 minutes.
After assembling the MP TGX Precast Gel in the Mini-PROTEAN Tetra Cell, the same protein (10-15 μg) was added in an 8-10 μL volume per well, 1×Tris-Glycine Buffer was added, and loading was performed. After loading was completed, transfer was performed using Pierce G2 Fast Blotter and Pierce 1-Step Transfer Buffer. After completion of the transfer, 10 ml of SuperBlock™ Blocking Buffer was dispensed and reacted at room temperature for 10 minutes. 5% BSA containing the primary antibody was dispensed and reacted over night at 4° C. The next day, washing was performed three times with 1×TBST at room temperature for 10 minutes. 5% BSA containing the secondary antibody was dispensed and reacted at room temperature for 1 hour. Washing was performed three times with 1×TBST at room temperature for 10 minutes. The amount of protein expression was measured using chemiluminescence (LuminoGraph, ATTO).

In a further experiment the test system is FADD−/− Jurkat cells. The experiment can be described thus: Necroptosis inhibition assay, TNF-α-induced necroptosis (CellTiter-Glo 2.0). The format is cell-based, human. The conditions noted are these: TNF-α 15 ng/mL; for Necroptosis inhibition assay (Rescue %) 1 μM: compound 1 μM; for Necroptosis inhibition assay (Rescue %) 10 μM: compound 10 μM. The method in brief:
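FADD−/− Jurkat cells preincubated 30 min at room temperature with compound at 0.1, 1 and 10 μM final, then stimulated with TNF-α (15 ng/mL final) for 20–24 h at 37 °C, 5% CO2. Viability read as ATP luminescence; cytotoxicity and necroptosis inhibition rate calculated from luminescence values.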

A word on the Kd: it is a measure of binding affinity in units of concentration. The low end stands for tighter binding, the high end for weaker binding.

The structures appear in SMILES notation.

The compound `COc1ccc(C(=O)N2CCC(OCCN3CCC(n4cc(-c5cnc(N)c(C(=O)O[C@@H](C(=O)Nc6ccc(F)cc6)c6ccccc6)n5)cn4)CC3)CC2)cc1N1CCC(=O)NC1=O` [TDH-448, (R)-2-((4-fluorophenyl)amino)-2-oxo-1-phenylethyl 3-amino-6-(1-(1-(2-((1-(3-(2,4-dioxotetrahydropyrimidin-1(2H)-yl)-4-methoxybenzoyl)piperidin-4-yl)oxy)ethyl)piperidin-4-yl)-1H-pyrazol-4-yl)pyrazine-2-carboxylate] gave a Kd at MLKL [1] of 0.38 nM. In addition, on MLKL [2], the “Degradation assay (Degradation %) 1 μM” value was found to be 48.26% and the “Degradation assay (Degradation %) 10 μM” value is given as 7.49%. Besides, in the experiment with FADD−/− Jurkat cells (FADD−/− Jurkat cells), the “Necroptosis inhibition assay (Rescue %) 1 μM” value is recorded as 27.91% and the “Necroptosis inhibition assay (Rescue %) 10 μM” value came out at 20.07%.
For `Nc1ncc(-c2cnn(C3CCN(CCOC4CCN(C(=O)Cc5cccc(NC6=CC(=O)N(C7CCC(=O)NC7=O)C6=O)c5)CC4)CC3)c2)nc1C(=O)O[C@@H](C(=O)Nc1ccc(F)cc1)c1ccccc1` (stereo partly drawn) [TDH-496, (R)-2-((4-fluorophenyl)amino)-2-oxo-1-phenylethyl 3-amino-6-(1-(1-(2-((1-(2-(3-((1-(2,6-dioxopiperidin-3-yl)-2,5-dioxo-2,5-dihydro-1H-pyrrol-3-yl)amino)phenyl)acetyl)piperidin-4-yl)oxy)ethyl)piperidin-4-yl)-1H-pyrazol-4-yl)pyrazine-2-carboxylate], in that order: 2.2 nM, 87.42%, 81.07%, 27.23% and 7.85%.
As for `Nc1ncc(-c2cnn(C3CCN(CCC4CCN(C(=O)COc5ccc6nnn(C7CCC(=O)NC7=O)c(=O)c6c5)CC4)CC3)c2)nc1C(=O)O[C@@H](C(=O)Nc1ccc(F)cc1)c1ccccc1` (stereo partly drawn) [TDH-330, (R)-2-((4-fluorophenyl)amino)-2-oxo-1-phenylethyl 3-amino-6-(1-(1-(2-(1-(2-((3-(2,6-dioxopiperidin-3-yl)-4-oxo-3,4-dihydrobenzo[d][1,2,3]triazin-6-yl)oxy)acetyl)piperidin-4-yl)ethyl)piperidin-4-yl)-1H-pyrazol-4-yl)pyrazine-2-carboxylate], the affinity at MLKL [1], expressed as Kd, was 0.65 nM. On MLKL [2], the “Degradation assay (Degradation %) 1 μM” value is 59.64% and the “Degradation assay (Degradation %) 10 μM” value is 49.16%. In the experiment with FADD−/− Jurkat cells (compound 1.1 µM), the “Necroptosis inhibition assay (Rescue %) 1.1 μM” value is listed as 54.05 (1.1µM) %. In the experiment on FADD−/− Jurkat cells, the “Necroptosis inhibition assay (Rescue %) 10 μM” value turned out to be 51.95%.
In turn, `Nc1ncc(-c2ccc(N3CCN(CCOCCOCCNC(=O)COc4ccc5c(c4)C(=O)N(C4CCC(=O)NC4=O)C5=O)CC3)nc2)nc1C(=O)OC(C(=O)Nc1ccc(F)cc1)c1ccccc1` (stereo not shown) [TDH-262, 2-((4-fluorophenyl)amino)-2-oxo-1-phenylethyl 3-amino-6-(6-(4-(2-(2-(2-(2-((2-(2,6-dioxopiperidin-3-yl)-1,3-dioxoisoindolin-5-yl)oxy)acetamido)ethoxy)ethoxy)ethyl)piperazin-1-yl)pyridin-3-yl)pyrazine-2-carboxylate] came in with a Kd on MLKL [1] of 65 nM. On MLKL [2], the “Degradation assay (Degradation %) 1 μM” value amounted to 58.43% and the “Degradation assay (Degradation %) 10 μM” value was determined as 75.8%. For the same compound, in the experiment with FADD−/− Jurkat cells, the “Necroptosis inhibition assay (Rescue %) 1 μM” value turned out to be 22.59% and the “Necroptosis inhibition assay (Rescue %) 10 μM” value is 4.02%.
As for `Nc1ncc(-c2cnn(C3CCN(C4CC5(CCN(CC6CCN(C(=O)c7ccc8c(N9CCC(=O)NC9=O)coc8c7)CC6)CC5)C4)CC3)c2)nc1C(=O)O[C@@H](C(=O)Nc1ccc(F)cc1)c1ccccc1` [TDH-553, (R)-2-((4-fluorophenyl)amino)-2-oxo-1-phenylethyl 3-amino-6-(1-(1-(7-((1-(3-(2,4-dioxotetrahydropyrimidin-1(2H)-yl)benzofuran-6-carbonyl)piperidin-4-yl)methyl)-7-azaspiro[3.5]nonan-2-yl)piperidin-4-yl)-1H-pyrazol-4-yl)pyrazine-2-carboxylate], binding on MLKL [1] was put at a Kd of 0.31 nM. On MLKL [2], the “Degradation assay (Degradation %) 1 μM” value worked out at 84.21% and the “Degradation assay (Degradation %) 10 μM” value was found to be 91.57%. In the experiment with FADD−/− Jurkat cells (FADD−/− Jurkat cells), the “Necroptosis inhibition assay (Rescue %) 1 μM” value is 58.63% and the “Necroptosis inhibition assay (Rescue %) 10 μM” value is −20.56%.
Compound `Nc1ncc(-c2cnn(C3CCN(CCOCCOCCOCCNC(=O)COc4ccc5c(c4)C(=O)N(C4CCC(=O)NC4=O)C5=O)CC3)c2)nc1C(=O)O[C@@H](C(=O)Nc1ccc(F)cc1)c1ccccc1` (stereo partly drawn) [TDH-166, (R)-2-((4-fluorophenyl)amino)-2-oxo-1-phenylethyl 3-amino-6-(1-(1-(1-((2-(2,6-dioxopiperidin-3-yl)-1,3-dioxoisoindolin-5-yl)oxy)-2-oxo-6,9,12-trioxa-3-azatetradecan-14-yl)piperidin-4-yl)-1H-pyrazol-4-yl)pyrazine-2-carboxylate] yielded a Kd at MLKL [1] of 3.4 nM. For the same compound, at MLKL [2], the “Degradation assay (Degradation %) 1 μM” value came out at 18.17% and the “Degradation assay (Degradation %) 10 μM” value turned out to be 60.05%. In the experiment with FADD−/− Jurkat cells, the “Necroptosis inhibition assay (Rescue %) 1 μM” value is given as 27.44% and the “Necroptosis inhibition assay (Rescue %) 10 μM” value is recorded as 65.57%.
In turn, `Nc1ncc(-c2cnn(C3CCN(CCOCCNC(=O)C4CCN(c5ccc6c(c5)C(=O)N(C5CCC(=O)NC5=O)C6=O)CC4)CC3)c2)nc1C(=O)O[C@@H](C(=O)Nc1ccc(F)cc1)c1ccccc1` (stereo partly drawn) [TDH-129, (R)-2-((4-fluorophenyl)amino)-2-oxo-1-phenylethyl 3-amino-6-(1-(1-(2-(2-(1-(2-(2,6-dioxopiperidin-3-yl)-1,3-dioxoisoindolin-5-yl)piperidine-4-carboxamido)ethoxy)ethyl)piperidin-4-yl)-1H-pyrazol-4-yl)pyrazine-2-carboxylate] gave a Kd on MLKL [1] of 7.1 nM. Moreover, at MLKL [2], the “Degradation assay (Degradation %) 1 μM” value was 32.68% and the “Degradation assay (Degradation %) 10 μM” value is on record as 57.68%. In the experiment on FADD−/− Jurkat cells, the “Necroptosis inhibition assay (Rescue %) 1 μM” value turned out to be 49.22% and the “Necroptosis inhibition assay (Rescue %) 10 μM” value was determined as 67.79%.
For `Nc1ncc(-c2cnn(C3CCN(C[C@H]4CC[C@H](CNC(=O)C5CCN(c6cccc7c6C(=O)N(C6CCC(=O)NC6=O)C7=O)CC5)CC4)CC3)c2)nc1C(=O)O[C@@H](C(=O)Nc1ccc(F)cc1)c1ccccc1` (stereo partly drawn) [TDH-349, (R)-2-((4-fluorophenyl)amino)-2-oxo-1-phenylethyl 3-amino-6-(1-(1-(((1r,4r)-4-((1-(2-(2,6-dioxopiperidin-3-yl)-1,3-dioxoisoindolin-4-yl)piperidine-4-carboxamido)methyl)cyclohexyl)methyl)piperidin-4-yl)-1H-pyrazol-4-yl)pyrazine-2-carboxylate], in that order: 3.7 nM, 93.71%, 92.68%, 45.54% and 42.11%.
